Measurements: EP0603160A2, “Compositions for in-situ active compound assembly” (SCRIPPS CLINIC AND RESEARCH FOUNDATION, priority 1986, dated 1988)
Like-named read-outs stand apart in the source and are kept apart here.

Key:
Ox blood erythrocytes = experiment: Erythrocyte killing with or without 1% serum, light scattering; type: cell-based; details: for mortality at 1.4 µM / mortality at 2 µM / mortality at 2.8 µM / mortality at 4 µM / mortality at 5.6 µM / mortality at 8 µM / mortality at 11.2 µM / mortality at 16 µM / mortality at 22.4 µM / mortality at 32 µM / mortality at 1 µM: Bos taurus, Erythrocyte, 1 h; for mortality at 1.4 µM: DIOG 1.4 µM; for mortality at 2.8 µM: DIOG 2.8 µM; for mortality at 4 µM: DIOG 4 µM; for mortality at 5.6 µM: DIOG 5.6 µM; for mortality at 11.2 µM: DIOG 11.2 µM; for mortality at 22.4 µM: DIOG 22.4 µM; for mortality at 32 µM: DIOG 32 µM; for mortality at 1 µM: DIOG 1 µM
Experimental: Ox blood erythrocytes were incubated for one hour in PBS at pH 6.6 in the presence or absence of 1% serum at 37°C. […] However, at 4-16 µM DIOG, the percentage of cells killed increased from 4.3 to 60.9. On the other hand, in the absence of serum, 7.2.% cells were killed even without the addition of DIOG, and a steady increase in killing occurred as the DIOG concentration increased, reaching 100% of cells killed at 8 µM.
The AOG concentration was maintained at a high level (448 µM) and the decanal concentration varied from 0-16 µM corresponding the previous DIOG concentration range. In this protocol, similar results were obtained for cells incubated in the absence of serum, but in the presence of 1% serum the curve was slightly displaced so that the cells appeared more protected as shown in Table 4.

human erythrocytes = experiment: Erythrocyte lysis (light scattering, hemoglobin release, cell counts); type: cell-based
Experimental: The putative product shown in Reaction Scheme 1 is evidently cytotoxic, since a suspension of human erythrocytes in a solution containing both CHD and DAPG in phosphate buffered saline is 95% lysed or aggregated within 1-14 hours under physiological conditions (the precise time depending on the concentrations) whereas erythrocytes are stable for at least 24 hours in plain PBS, and also in solutions containing either DAPG or CHD alone. In addition, when erythrocytes are incubated with mixtures of CHD and DAPG, a substantial induction period is observed during which no lysis or aggregation occurs, due to the time lag in formation of the cytotoxic material. Whether lysis or aggregation results depends on relative concentration; excess CHD results in lysis, equimolar concentrations in aggregation. The cytotoxicity may be due to the formation of the polycation, analogous to the known antitumor activity of poly-(L-lysine); Arnold, L. J. Proc. Natl Acad Sci (supra).
For erythrocytes blood was collected and stored with KEDTA at 4°C and erythrocytes prepared within 48 hours by centrifuging three times in phosphate-buffered saline (PBS, pH 7.4). Suspensions containing 3 x 10⁷ cells/ml were prepared in PBS containing 1% EtOH, but no […] cations, and incubated at 37°C with the compounds or mixtures to be tested.
On the other hand, while a mixture of 28 µM AOG and 28 µM decanal (reagent grade, Aldrich Chemical Co.) results in less than 10% lysis within the same 20 minute time frame, as the time of incubation increases, lysis increases also, as indicated by hemoglobin release measured by (1) light absorption of the supernatant at 400 nm. (2) decrease of light scattering by the cells at 700 nm, and (3) direct cell counts using a microscope. […] Suspensions of 3.5 x 10⁷ cells/ml prepared as above in PBS (1% EtOH, no divalent cations, pH 7.4) were incubated at 37°C, and cell lysis was followed by observing the decrease in absorbance at 700 nm. For 0% lysis, A₇₀₀ is 1.0; 0.2 for 100% lysis).
The curves were calculated using a nonlinear least squares fitting algorithm (Arc, H, et al, Statistical Methods (1970) Harper & Row, pp. 100-111) and based on a modified Hill equation (Cantor, C.R. et al, supra) wherein percent hemolysis is calculated as 100% divided by (1+(K/C))^α [formula] . In this equation, K is the median effect concentration, C is the concentration of DIOG (or of decanal and AOG), and α is the Hill constant.

[1] = pH 6.6, similar experiment (Table 3), read-out: % Cells Killed (0% Serum)
[2] = pH 6.6, similar experiment (Table 3), read-out: % Cells Killed (1% Serum)
[3] = one hour, PBS pH 6.6, 37°C (second Table 2), read-out: % cells killed (0% serum)
[4] = one hour, PBS pH 6.6, 37°C (second Table 2), read-out: % cells killed (1% serum)

Compound: CCCCCCCCCC=NNC(=N)NCCCCCCCC [DIOG, N-1-decylidenimino-N'-octylguanidine]
- mortality at 1.4 µM (Ox blood erythrocytes; [1]): 1.3%
- mortality at 1.4 µM (Ox blood erythrocytes; [2]): 0%
- mortality at 2 µM (Ox blood erythrocytes; pH 6.6, DIOG 2 µM, similar experiment (Table 3), read-out: % Cells Killed (0% Serum)): 17.9%
- mortality at 2 µM (Ox blood erythrocytes; pH 6.6, DIOG 2 µM, similar experiment (Table 3), read-out: % Cells Killed (1% Serum)): 5.1%
- mortality at 2.8 µM (Ox blood erythrocytes; [1]): 17.9%
- mortality at 2.8 µM (Ox blood erythrocytes; [2]): 9%
- mortality at 4 µM (Ox blood erythrocytes; [1]): 48.7%
- mortality at 4 µM (Ox blood erythrocytes; [2]): 11.5%
- mortality at 5.6 µM (Ox blood erythrocytes; [1]): 91%
- mortality at 5.6 µM (Ox blood erythrocytes; [2]): 16.7%
- mortality at 8 µM (Ox blood erythrocytes; pH 6.6, DIOG 8 µM, similar experiment (Table 3), read-out: % Cells Killed (0% Serum)): 100%
- mortality at 8 µM (Ox blood erythrocytes; pH 6.6, DIOG 8 µM, similar experiment (Table 3), read-out: % Cells Killed (1% Serum)): 35.9%
- mortality at 11.2 µM (Ox blood erythrocytes; [1]): 100%
- mortality at 11.2 µM (Ox blood erythrocytes; [2]): 37.2%
- mortality at 16 µM (Ox blood erythrocytes; pH 6.6, DIOG 16 µM, similar experiment (Table 3), read-out: % Cells Killed (0% Serum)): 100%
- mortality at 16 µM (Ox blood erythrocytes; pH 6.6, DIOG 16 µM, similar experiment (Table 3), read-out: % Cells Killed (1% Serum)): 51.3%
- mortality at 22.4 µM (Ox blood erythrocytes; [1]): 100%
- mortality at 22.4 µM (Ox blood erythrocytes; [2]): 100%
- mortality at 32 µM (Ox blood erythrocytes; [1]): 100%
- mortality at 32 µM (Ox blood erythrocytes; [2]): 98.7%
- mortality at 1 µM (Ox blood erythrocytes; [3]): 10.1%
- mortality at 1 µM (Ox blood erythrocytes; [4]): 0%
- mortality at 2 µM (Ox blood erythrocytes; DIOG 2 µM, one hour, PBS pH 6.6, 37°C (second Table 2), read-out: % cells killed (0% serum)): 29%
- mortality at 2 µM (Ox blood erythrocytes; DIOG 2 µM, one hour, PBS pH 6.6, 37°C (second Table 2), read-out: % cells killed (1% serum)): 0%
- mortality at 4 µM (Ox blood erythrocytes; [3]): 47.8%
- mortality at 4 µM (Ox blood erythrocytes; [4]): 4.3%
- mortality at 8 µM (Ox blood erythrocytes; DIOG 8 µM, one hour, PBS pH 6.6, 37°C (second Table 2), read-out: % cells killed (0% serum)): 100%
- mortality at 8 µM (Ox blood erythrocytes; DIOG 8 µM, one hour, PBS pH 6.6, 37°C (second Table 2), read-out: % cells killed (1% serum)): 29%
- mortality at 16 µM (Ox blood erythrocytes; DIOG 16µM, one hour, PBS pH 6.6, 37°C (second Table 2), read-out: % cells killed (0% serum)): 100%
- mortality at 16 µM (Ox blood erythrocytes; DIOG 16µM, one hour, PBS pH 6.6, 37°C (second Table 2), read-out: % cells killed (1% serum)): 60.9%
- % cells killed (1% serum) (Ox blood erythrocytes; DIOG 2 µM, one hour, PBS pH 6.6, 37°C (second Table 2)): no cell killing
- % cells killed (0% serum) (Ox blood erythrocytes; DIOG 8 µM, one hour, PBS pH 6.6, 37°C (second Table 2), 60 min): 100%
- lysis (human erythrocytes; 14 µM DIOG previously prepared, in 20 minutes, 37°C): complete lysis
- EC50 (human erythrocytes; Erythrocyte, hemoglobin release from human erythrocytes, absorption at 400 nm, modified Hill equation fit, Figure 4, read-out: median effect concentration): 6.2 µM
